Assay results as given in ChEMBL document CHEMBL3272040, “3-Cyanocephems, and carbon-3 heterocyclic-substituted cephems via 1,3-dipolar cycloadditions” (1976).
Converted amounts (≈) assume the structure as drawn.

How the values were obtained:
[1] = test system: Streptococcus pyogenes; assay: Antimicrobial activity against Streptococcus pyogenes MB-3124; format: functional
[2] = test system: Staphylococcus aureus; assay: Antimicrobial activity against Staphylococcus aureus MB-2865; format: functional

Compound | MIC [1] [µg/mL] | MIC [2] [µg/mL]
O=C(Cc1cccs1)N[C@@H]1C(=O)N2C(C(=O)OC(c3ccccc3)c3ccccc3)=C(/C=N/NC(=O)c3ccccc3)CS[C@H]12 | < 0.39 | 
O=C(Cc1cccs1)N[C@@H]1C(=O)N2C(C(=O)OC(c3ccccc3)c3ccccc3)=C(c3cc(-c4ccccc4)on3)CS[C@H]12 | < 0.39 | 
O=C(Cc1cccs1)N[C@@H]1C(=O)N2C(C(=O)O)=C(c3cc(-c4ccccc4)on3)CS[C@H]12 | < 0.39 | < 0.39
COC(=O)c1[nH]nc(C2=C(C(=O)OC(c3ccccc3)c3ccccc3)N3C(=O)[C@@H](NC(=O)Cc4cccs4)[C@H]3SC2)c1C(=O)OC | < 0.39 | 
N#CC1=C(C(=O)OC(c2ccccc2)c2ccccc2)N2C(=O)[C@@H](NC(=O)Cc3cccs3)[C@H]2SC1 | < 0.39 | 
O=C(Cc1cccs1)N[C@@H]1C(=O)N2C(C(=O)OC(c3ccccc3)c3ccccc3)=C(/C=N/Nc3ccc([N+](=O)[O-])cc3)CS[C@H]12 | < 0.39 | 
COC(=O)c1cc(C2=C(C(=O)OC(c3ccccc3)c3ccccc3)N3C(=O)[C@@H](NC(=O)Cc4cccs4)[C@H]3SC2)nn1C | < 0.39 | 
O=C(Cc1cccs1)N[C@@H]1C(=O)N2C(C(=O)OC(c3ccccc3)c3ccccc3)=C(/C=N/OCc3ccccc3)CS[C@H]12 | < 0.39 | 
O=C(O)CO/N=C/C1=C(C(=O)OC(c2ccccc2)c2ccccc2)N2C(=O)[C@@H](NC(=O)Cc3cccs3)[C@H]2SC1 | < 0.39 | 
O=CC1=C(C(=O)OC(c2ccccc2)c2ccccc2)N2C(=O)[C@@H](NC(=O)Cc3cccs3)[C@H]2SC1 | < 0.39 | 
CCOC(=O)C1CC(C2=C(C(=O)OC(c3ccccc3)c3ccccc3)N3C(=O)[C@@H](NC(=O)Cc4cccs4)[C@H]3SC2)=NN1 (stereo partly specified) | < 0.39 | 
COC(=O)c1cc(C2=C(C(=O)O)N3C(=O)[C@@H](NC(=O)Cc4cccs4)[C@H]3SC2)n[nH]1 | < 0.39 | 3.12 (≈ 6.96 µM)
O=C(Cc1cccs1)N[C@@H]1C(=O)N2C(C(=O)OC(c3ccccc3)c3ccccc3)=C(c3nn[nH]c3C(F)(F)F)CS[C@H]12 | < 0.39 | 
COC(=O)c1cc(C2=C(C(=O)OC(c3ccccc3)c3ccccc3)N3C(=O)[C@@H](NC(=O)Cc4cccs4)[C@H]3SC2)n[nH]1 | < 0.39 | 
[N-]=[N+]=CC1=C(C(=O)OC(c2ccccc2)c2ccccc2)N2C(=O)[C@@H](NC(=O)Cc3cccs3)[C@H]2SC1 | < 0.39 | 
N#CC1=C(C(=O)O)N2C(=O)[C@@H](NC(=O)Cc3cccs3)[C@H]2SC1 | < 0.39 | 0.78 (≈ 2.23 µM)
O=C(Cc1cccs1)N[C@@H]1C(=O)N2C(C(=O)OC(c3ccccc3)c3ccccc3)=C(C#[N+][O-])CS[C@H]12 | < 0.39 | 

The next lines start with the values.

MIC [1] [µg/mL] | MIC [2] [µg/mL] | Compound
< 0.39 |  | COC(=O)C1=C(/C=N/O)CS[C@@H]2[C@H](NC(=O)Cc3cccs3)C(=O)N12
< 0.39 |  | COC(=O)CO/N=C/C1=C(C(=O)OC(c2ccccc2)c2ccccc2)N2C(=O)[C@@H](NC(=O)Cc3cccs3)[C@H]2SC1
< 0.39 |  | CCOC(=O)N/N=C/C1=C(C(=O)OC(c2ccccc2)c2ccccc2)N2C(=O)[C@@H](NC(=O)Cc3cccs3)[C@H]2SC1
< 0.39 |  | CC(=O)N/N=C/C1=C(C(=O)OC(c2ccccc2)c2ccccc2)N2C(=O)[C@@H](NC(=O)Cc3cccs3)[C@H]2SC1
< 0.39 |  | CO/N=C/C1=C(C(=O)OC(c2ccccc2)c2ccccc2)N2C(=O)[C@@H](NC(=O)Cc3cccs3)[C@H]2SC1
< 0.39 | 12.5 (≈ 28.4 µM) | COC(=O)CO/N=C/C1=C(C(=O)O)N2C(=O)[C@@H](NC(=O)Cc3cccs3)[C@H]2SC1
< 0.39 |  | COC(=O)C1=C(/C=N/N(C)S(=O)(=O)c2ccc(C)cc2)CS[C@@H]2[C@H](NC(=O)Cc3cccs3)C(=O)N12
< 0.39 |  | COC(=O)CO/N=C/C1=C(C(=O)OC)N2C(=O)[C@@H](NC(=O)Cc3cccs3)[C@H]2SC1
< 0.39 |  | O=C(Cc1cccs1)N[C@@H]1C(=O)N2C(C(=O)OC(c3ccccc3)c3ccccc3)=C(/C=N/O)CS[C@H]12
< 0.39 |  | COC(=O)C1=C(c2cc(-c3ccccc3)on2)CS[C@@H]2[C@H](NC(=O)Cc3cccs3)C(=O)N12
< 0.39 |  | COC(=O)C1=C(c2cc(C(=O)OC)n(C)n2)CS[C@@H]2[C@H](NC(=O)Cc3cccs3)C(=O)N12
< 0.39 |  | Cc1ccc(S(=O)(=O)N/N=C/C2=C(C(=O)OC(c3ccccc3)c3ccccc3)N3C(=O)[C@@H](NC(=O)Cc4cccs4)[C@H]3SC2)cc1
< 0.39 | < 0.39 | O=C(Cc1cccs1)N[C@@H]1C(=O)N2C(C(=O)O)=C(/C=N/O)CS[C@H]12
< 0.39 | 0.78 (≈ 1.69 µM) | COC(=O)c1cc(C2=C(C(=O)O)N3C(=O)[C@@H](NC(=O)Cc4cccs4)[C@H]3SC2)nn1C
< 0.39 | < 0.39 | Cc1ccc(S(=O)(=O)N(C)/N=C/C2=C(C(=O)O)N3C(=O)[C@@H](NC(=O)Cc4cccs4)[C@H]3SC2)cc1
< 0.39 |  | Cc1ccc(S(=O)(=O)[N-]/N=C/C2=C(C(=O)OC(c3ccccc3)c3ccccc3)N3C(=O)[C@@H](NC(=O)Cc4cccs4)[C@H]3SC2)cc1.[Li+]
< 0.39 |  | Cc1ccc(S(=O)(=O)N(C)/N=C/C2=C(C(=O)OC(c3ccccc3)c3ccccc3)N3C(=O)[C@@H](NC(=O)Cc4cccs4)[C@H]3SC2)cc1
